# Assay results: ChEMBL document CHEMBL5046241, “The novel therapeutic strategy of vilazodone-donepezil chimeras as potent triple-target ligands for the potential treatment of Alzheimer's disease with comorbid depression” (Eur J Med Chem, 2022)
# Columns and labels:
# [1] = target: Sodium-dependent serotonin transporter (Homo sapiens, UniProt P31645); format: cell-based, HEK293
# Cholinesterase = Cholinesterase (Mus musculus, UniProt Q03311)
# Description: Inhibition of BuChE in mouse serum using butyrylthiocholine iodide as substrate incubated for 20 mins by Ellman's method
# Acetylcholinesterase = target: T1, Acetylcholinesterase (Mus musculus, UniProt P21836); assay: biochemical
# T1 sequence (P21836 whole entry): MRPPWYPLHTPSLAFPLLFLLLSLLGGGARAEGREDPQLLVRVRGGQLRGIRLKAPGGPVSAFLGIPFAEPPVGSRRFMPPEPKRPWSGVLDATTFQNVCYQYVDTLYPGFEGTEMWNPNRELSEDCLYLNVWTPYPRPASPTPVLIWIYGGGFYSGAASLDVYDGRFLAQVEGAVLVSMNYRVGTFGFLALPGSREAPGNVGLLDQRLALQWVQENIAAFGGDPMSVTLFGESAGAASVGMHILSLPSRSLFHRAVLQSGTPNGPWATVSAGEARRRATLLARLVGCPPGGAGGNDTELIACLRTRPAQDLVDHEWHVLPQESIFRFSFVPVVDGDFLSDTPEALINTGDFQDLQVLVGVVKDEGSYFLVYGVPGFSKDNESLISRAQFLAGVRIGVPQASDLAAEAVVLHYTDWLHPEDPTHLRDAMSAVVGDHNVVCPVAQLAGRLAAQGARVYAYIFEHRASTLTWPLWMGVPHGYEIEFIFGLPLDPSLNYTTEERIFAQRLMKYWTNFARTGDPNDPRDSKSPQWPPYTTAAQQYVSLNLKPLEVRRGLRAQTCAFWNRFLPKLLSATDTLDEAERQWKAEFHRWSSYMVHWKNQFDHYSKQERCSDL
# Description: Inhibition of AChE in mouse cortical homogenate using acetylthiocholine iodide as substrate incubated for 20 mins by Ellman's method
# [2] = target: T2, 5-hydroxytryptamine receptor 1A (Homo sapiens, UniProt P08908)
# T2 sequence (P08908 whole entry): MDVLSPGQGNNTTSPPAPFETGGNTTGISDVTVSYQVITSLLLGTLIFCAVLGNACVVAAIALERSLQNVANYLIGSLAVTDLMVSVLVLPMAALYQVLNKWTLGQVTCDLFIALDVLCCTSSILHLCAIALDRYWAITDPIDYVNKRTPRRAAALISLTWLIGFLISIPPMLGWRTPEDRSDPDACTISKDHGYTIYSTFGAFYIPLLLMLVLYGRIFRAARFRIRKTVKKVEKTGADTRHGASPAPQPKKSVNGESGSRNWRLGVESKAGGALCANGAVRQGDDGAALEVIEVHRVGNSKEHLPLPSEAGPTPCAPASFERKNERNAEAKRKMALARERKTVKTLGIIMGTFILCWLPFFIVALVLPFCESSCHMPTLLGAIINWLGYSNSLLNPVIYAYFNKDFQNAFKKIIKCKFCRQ
# Description: Agonist activity at human 5-HT1A receptor expressed in HEK293 cells incubated for 60 mins by Eu-cAMP tracer based LANCE ultra cAMP assay
# in vitro = settings: PAMPA
# Description: Permeability of compound by PAMPA-BBB assay
# Sequence of Sodium-dependent serotonin transporter (P31645 whole entry): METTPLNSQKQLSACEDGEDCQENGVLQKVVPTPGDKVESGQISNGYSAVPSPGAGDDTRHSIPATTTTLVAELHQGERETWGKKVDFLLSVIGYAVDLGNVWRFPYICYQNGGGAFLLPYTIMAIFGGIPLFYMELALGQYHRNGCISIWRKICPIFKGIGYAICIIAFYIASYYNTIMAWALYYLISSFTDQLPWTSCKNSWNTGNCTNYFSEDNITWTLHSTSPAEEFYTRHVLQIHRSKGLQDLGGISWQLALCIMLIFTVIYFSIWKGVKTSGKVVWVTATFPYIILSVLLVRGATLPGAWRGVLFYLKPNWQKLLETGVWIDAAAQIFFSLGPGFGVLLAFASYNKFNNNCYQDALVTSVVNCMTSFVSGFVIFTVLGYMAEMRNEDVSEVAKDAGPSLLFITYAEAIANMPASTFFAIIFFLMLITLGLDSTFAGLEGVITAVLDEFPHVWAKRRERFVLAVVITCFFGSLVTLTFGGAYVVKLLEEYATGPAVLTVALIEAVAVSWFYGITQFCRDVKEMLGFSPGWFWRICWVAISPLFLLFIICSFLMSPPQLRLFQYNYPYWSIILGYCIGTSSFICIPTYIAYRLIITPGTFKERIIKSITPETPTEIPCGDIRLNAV
# Sequence of Cholinesterase (Q03311 whole entry): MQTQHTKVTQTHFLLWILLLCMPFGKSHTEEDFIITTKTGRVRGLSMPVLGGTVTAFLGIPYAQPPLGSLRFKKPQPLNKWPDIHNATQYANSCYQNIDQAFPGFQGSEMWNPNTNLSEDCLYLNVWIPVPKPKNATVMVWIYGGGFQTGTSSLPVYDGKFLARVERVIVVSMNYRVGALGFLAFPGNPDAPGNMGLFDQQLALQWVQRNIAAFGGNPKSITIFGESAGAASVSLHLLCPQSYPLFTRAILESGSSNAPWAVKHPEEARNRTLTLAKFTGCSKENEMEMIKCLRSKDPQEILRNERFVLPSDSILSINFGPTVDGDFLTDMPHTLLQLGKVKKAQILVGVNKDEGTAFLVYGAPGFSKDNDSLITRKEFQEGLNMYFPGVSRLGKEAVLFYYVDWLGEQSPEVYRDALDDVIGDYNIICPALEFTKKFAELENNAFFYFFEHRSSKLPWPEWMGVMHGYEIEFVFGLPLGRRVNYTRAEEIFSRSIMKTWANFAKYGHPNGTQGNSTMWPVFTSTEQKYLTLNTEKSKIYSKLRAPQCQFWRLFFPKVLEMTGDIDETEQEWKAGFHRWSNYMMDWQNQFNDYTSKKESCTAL
SMILES,IC50 [1],IC50 (Cholinesterase),IC50 (Acetylcholinesterase),EC50 [2],Papp (in vitro)
N#Cc1ccc2[nH]cc(CCCCN3CCN(c4ccc5c(c4)CC(CC4CCN(Cc6ccccc6)CC4)C5=O)CC3)c2c1 (stereo not drawn),0.036 µM,1.67 µM,0.00584 µM,–,–
N#Cc1ccc2[nH]cc(CCCCN3CCN(c4cccc(C(=O)CCC5CCN(Cc6ccccc6)CC5)c4)CC3)c2c1,–,1 µM,0.0379 µM,–,–
N#Cc1ccc2[nH]cc(CCCCN3CCN(c4ccc5c(c4)C(=O)C(CC4CCN(Cc6ccccc6)CC4)C5)CC3)c2c1 (stereo not drawn),–,0.325 µM,0.0374 µM,–,–
N#Cc1ccc2[nH]cc(CCN3CCN(c4ccc(C(=O)CCC5CCN(Cc6ccccc6)CC5)cc4)CC3)c2c1,0.0323 µM,3 µM,0.00504 µM,–,–
N#Cc1ccc2[nH]cc(CCN3CCN(c4ccc(C(=O)CCC5CCN(Cc6cccnc6)CC5)cc4)CC3)c2c1,–,6.75 µM,0.0077 µM,0.547 µM,2.58 ×10⁻⁶ cm/s
N#Cc1ccc2[nH]cc(CCCCN3CCN(c4ccc(C(=O)CCC5CCN(CC6CCCCC6)CC5)cc4)CC3)c2c1,–,2.83 µM,0.0765 µM,–,–
N#Cc1ccc2[nH]cc(CCCCN3CCN(c4ccc(C(=O)CCC5CCN(Cc6cccc(Cl)c6)CC5)cc4)CC3)c2c1,–,15.3 µM,0.027 µM,0.203 µM,–
N#Cc1ccc2[nH]cc(CN3CCN(c4ccc(C(=O)CCC5CCN(Cc6cccnc6)CC5)cc4)CC3)c2c1,–,5.85 µM,0.00997 µM,> 1 µM,2.86 ×10⁻⁶ cm/s
O=C(CCC1CCN(Cc2ccccc2)CC1)c1ccc(N2CCN(CCCCc3c[nH]c4ccccc34)CC2)cc1,0.285 µM,0.986 µM,0.00151 µM,–,–
N#Cc1ccc2[nH]cc(CCN3CCN(c4ccc5c(c4)CC(CC4CCN(Cc6ccccc6)CC4)C5=O)CC3)c2c1 (stereo not drawn),0.00881 µM,0.638 µM,0.0087 µM,> 1 µM,4.16 ×10⁻⁶ cm/s
N#Cc1ccc2[nH]cc(CCCCN3CCN(c4cccc5c4C(=O)C(CC4CCN(Cc6ccccc6)CC4)C5)CC3)c2c1 (stereo not drawn),–,0.183 µM,0.709 µM,0.036 µM,–
N#Cc1ccc2[nH]cc(CCCCN3CCN(c4ccc(C(=O)CCC5CCN(CC6CCC6)CC5)cc4)CC3)c2c1,–,1.32 µM,0.249 µM,–,–
N#Cc1ccc2[nH]cc(CCN3CCN(c4ccc(C(=O)CCC5CCN(Cc6ccoc6)CC5)cc4)CC3)c2c1,–,2.84 µM,0.0123 µM,–,–
Cc1cccc(CN2CCC(CCC(=O)c3ccc(N4CCN(CCCCc5c[nH]c6ccc(C#N)cc56)CC4)cc3)CC2)c1,–,13.4 µM,0.0183 µM,–,–
CCN1CCC(CCC(=O)c2ccc(N3CCN(CCCCc4c[nH]c5ccc(C#N)cc45)CC3)cc2)CC1,–,2.38 µM,0.393 µM,0.009 µM,–
N#Cc1ccc2[nH]cc(CCCCN3CCN(c4ccc(C(=O)CCC5CCN(Cc6ccoc6)CC5)cc4)CC3)c2c1,0.0357 µM,2.73 µM,0.00895 µM,0.019 µM,4.68 ×10⁻⁶ cm/s
N#Cc1ccc2[nH]cc(CN3CCN(c4ccc(C(=O)CCC5CCN(Cc6ccoc6)CC5)cc4)CC3)c2c1,–,1.4 µM,0.0106 µM,> 1 µM,5.56 ×10⁻⁶ cm/s
N#Cc1ccc2[nH]cc(CN3CCN(c4ccc5c(c4)CC(CC4CCN(Cc6ccccc6)CC4)C5=O)CC3)c2c1 (stereo not drawn),0.0159 µM,0.498 µM,0.00668 µM,> 1 µM,3.61 ×10⁻⁶ cm/s
N#Cc1ccc2[nH]cc(CCCCN3CCN(c4ccc(C(=O)CCC5CCN(Cc6cc[nH]c6)CC5)cc4)CC3)c2c1,0.00825 µM,2 µM,0.00394 µM,0.0222 µM,4.77 ×10⁻⁶ cm/s
COc1ccc2[nH]cc(CCCCN3CCN(c4ccc(C(=O)CCC5CCN(Cc6ccccc6)CC5)cc4)CC3)c2c1,0.0765 µM,0.687 µM,0.00242 µM,–,–
N#Cc1ccc2[nH]cc(CCCCN3CCN(c4ccc(C(=O)CCC5CCN(Cc6cccc(Br)c6)CC5)cc4)CC3)c2c1,–,–,0.0915 µM,–,–
N#Cc1ccc2[nH]cc(CCCCN3CCN(c4ccc(C(=O)CCC5CCN(Cc6ccc7ccccc7c6)CC5)cc4)CC3)c2c1,–,–,–,> 1 µM,–
C#CCN1CCC(CCC(=O)c2ccc(N3CCN(CCCCc4c[nH]c5ccc(C#N)cc45)CC3)cc2)CC1,–,–,1.14 µM,0.029 µM,–
O=C(CCC1CCN(Cc2ccccc2)CC1)c1ccc(N2CCN(CCCCc3c[nH]c4ccc(Br)cc34)CC2)cc1,–,3.84 µM,0.00775 µM,–,–

SMILES,IC50 [1],IC50 (Cholinesterase),IC50 (Acetylcholinesterase),EC50 [2],Papp (in vitro)
N#Cc1ccc2[nH]cc(CCCN3CCN(c4ccc(C(=O)CCC5CCN(Cc6cccnc6)CC5)cc4)CC3)c2c1,–,2.01 µM,0.00641 µM,–,–
N#Cc1ccc2[nH]cc(CCCN3CCN(c4ccc(C(=O)CCC5CCN(Cc6ccsc6)CC5)cc4)CC3)c2c1,0.0411 µM,1.2 µM,0.00185 µM,–,–
N#Cc1ccc2[nH]cc(CCCCN3CCN(c4ccc(C(=O)CCC5CCN(Cc6cccc(C(F)(F)F)c6)CC5)cc4)CC3)c2c1,–,–,0.294 µM,0.323 µM,–
COC(=O)c1ccc2[nH]cc(CCCCN3CCN(c4ccc(C(=O)CCC5CCN(Cc6ccccc6)CC5)cc4)CC3)c2c1,> 1 µM,0.336 µM,0.00328 µM,–,–
CCCCN1CCC(CCC(=O)c2ccc(N3CCN(CCCCc4c[nH]c5ccc(C#N)cc45)CC3)cc2)CC1,–,1.91 µM,0.123 µM,–,–
C=CCN1CCC(CCC(=O)c2ccc(N3CCN(CCCCc4c[nH]c5ccc(C#N)cc45)CC3)cc2)CC1,–,1.66 µM,0.267 µM,0.0086 µM,–
N#Cc1ccc2[nH]cc(CCCCN3CCN(c4ccccc4C(=O)CCC4CCN(Cc5ccccc5)CC4)CC3)c2c1,–,0.351 µM,2.52 µM,–,–
O=C(CCC1CCN(Cc2ccccc2)CC1)c1ccc(N2CCN(CCCCc3c[nH]c4ccc(F)cc34)CC2)cc1,0.114 µM,1.47 µM,0.00243 µM,–,–
Cc1ccc2[nH]cc(CCCCN3CCN(c4ccc(C(=O)CCC5CCN(Cc6ccccc6)CC5)cc4)CC3)c2c1,> 1 µM,1.2 µM,0.00228 µM,0.279 µM,2.5 ×10⁻⁶ cm/s
N#Cc1ccc2[nH]cc(CCCCN3CCN(c4ccc(C(=O)CCC5CCN(Cc6ccsc6)CC5)cc4)CC3)c2c1,0.0201 µM,0.883 µM,0.00301 µM,0.0666 µM,4.62 ×10⁻⁶ cm/s
COc1cccc(CN2CCC(CCC(=O)c3ccc(N4CCN(CCCCc5c[nH]c6ccc(C#N)cc56)CC4)cc3)CC2)c1,–,–,0.644 µM,–,–
N#Cc1ccc2[nH]cc(CCCCN3CCN(c4ccc(C(=O)CCC5CCN(CC6CCCC6)CC5)cc4)CC3)c2c1,–,1.76 µM,0.0404 µM,0.0498 µM,–
N#Cc1ccc2[nH]cc(CCCCN3CCN(c4ccc(C(=O)CCC5CCN(Cc6cccnc6)CC5)cc4)CC3)c2c1,0.0162 µM,4.59 µM,0.00798 µM,0.022 µM,4.43 ×10⁻⁶ cm/s
N#Cc1ccc2[nH]cc(CCCCN3CCN(c4ccc(C(=O)CCC5CCN(Cc6ccc(F)cc6)CC5)cc4)CC3)c2c1,–,2.68 µM,0.0324 µM,0.162 µM,–
N#Cc1ccc2[nH]cc(CCCCN3CCN(c4ccc(C(=O)CCC5CCN(CC6CC6)CC5)cc4)CC3)c2c1,–,0.743 µM,0.366 µM,0.0091 µM,–
O=C(CCC1CCN(Cc2ccccc2)CC1)c1ccc(N2CCN(CCCCc3c[nH]c4ccc(Cl)cc34)CC2)cc1,0.159 µM,2.72 µM,0.00352 µM,–,–
N#Cc1ccc2[nH]cc(CCCCN3CCN(c4ccc5c(c4)C/C(=C\C4CCN(Cc6ccccc6)CC4)C5=O)CC3)c2c1,–,4.95 µM,0.0307 µM,–,–
N#Cc1ccc2[nH]cc(CCCN3CCN(c4ccc(C(=O)CCC5CCN(Cc6ccoc6)CC5)cc4)CC3)c2c1,–,1.34 µM,0.00961 µM,0.029 µM,5.17 ×10⁻⁶ cm/s
N#Cc1ccc2[nH]cc(CCCCN3CCN(c4ccc(C(=O)CCC5CCN(Cc6cccc(F)c6)CC5)cc4)CC3)c2c1,–,11.3 µM,0.0109 µM,–,–
N#Cc1ccc2[nH]cc(CCCCN3CCN(c4ccc(C(=O)CCC5CCN(Cc6ccccc6F)CC5)cc4)CC3)c2c1,–,2.51 µM,0.012 µM,–,–
O=C(CCC1CCN(Cc2ccccc2)CC1)c1ccc(N2CCN(CCCCc3c[nH]c4cc(Cl)c(Cl)cc34)CC2)cc1,–,5.81 µM,0.0112 µM,> 1 µM,–
N#Cc1ccc2c(CCCCN3CCN(c4ccc(C(=O)CCC5CCN(Cc6ccccc6)CC5)cc4)CC3)c[nH]c2c1,–,2.64 µM,0.00371 µM,> 1 µM,–
N#Cc1ccc2[nH]cc(CCCN3CCN(c4ccc(C(=O)CCC5CCN(Cc6cc[nH]c6)CC5)cc4)CC3)c2c1,0.0149 µM,1.13 µM,0.00327 µM,–,–
